From PubChem BioAssay (NCI)
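These data come from cells grown in 96-well plates and exposed to compound for 48 hours at five concentrations. GI50 marks 50% less growth. TGI marks complete inhibition of growth.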

Experiments:
Test in all cases: NCI anticancer screen, dose series, 48 h
[1] = system: 786-0 renal
[2] = system: A498 renal
[3] = system: A549 NSCLC
[4] = system: ACHN renal
[5] = system: BT-549 breast
[6] = system: CAKI-1 renal
[7] = system: CCRF-CEM leukemia
[8] = system: COLO 205 colon
[9] = system: DU-145 prostate
[10] = system: EKVX NSCLC
[11] = system: HCC-2998 colon
[12] = system: HCT-116 colon
[13] = system: HCT-15 colon
[14] = system: HL-60(TB) leukemia
[15] = system: HOP-62 NSCLC
[16] = system: HOP-92 NSCLC
[17] = system: HS 578T breast
[18] = system: HT29 colon
[19] = system: IGROV1 ovarian
[20] = system: K-562 leukemia
[21] = system: KM12 colon
[22] = system: LOX IMVI melanoma
[23] = system: M14 melanoma
[24] = system: MALME-3M melanoma
[25] = system: MCF7 breast
[26] = system: MDA-MB-231 breast
[27] = system: MDA-MB-435
[28] = system: MOLT-4 leukemia
[29] = system: NCI-H226 lung
[30] = system: NCI-H23 lung
[31] = system: NCI-H460 lung
[32] = system: NCI-H522 lung
[33] = system: NCI/ADR-RES ovarian
[34] = system: OVCAR-4 ovarian
[35] = system: OVCAR-5 ovarian
[36] = system: OVCAR-8 ovarian
[37] = system: PC-3 prostate
[38] = system: RPMI-8226 leukemia
[39] = system: RXF 393 renal
[40] = system: SF-268 CNS
[41] = system: SF-295 CNS
[42] = system: SF-539 CNS
[43] = system: SK-MEL-2 melanoma
[44] = system: SK-MEL-28 melanoma
[45] = system: SK-MEL-5 melanoma
[46] = system: SK-OV-3 ovarian
[47] = system: SN12C renal
[48] = system: SNB-19 CNS
[49] = system: SNB-75 CNS
[50] = system: SR leukemia
[51] = system: SW-620 colon
[52] = system: T-47D breast
[53] = system: TK-10 renal
[54] = system: U251 CNS
[55] = system: UACC-257 melanoma
[56] = system: UACC-62 melanoma
[57] = system: UO-31 renal

NS(=O)(=O)c1ccc(Nc2nc(N/N=C/c3ccccn3)nc(Nc3ccccc3)n2)cc1
GI50 [1]: 1060 nM | TGI [1]: > 100000 nM | GI50 [2]: 1570 nM | TGI [2]: 3180 nM | GI50 [3]: 2290 nM | TGI [3]: 5360 nM | GI50 [4]: 1960 nM | TGI [4]: 5470 nM | GI50 [5]: 898 nM | TGI [5]: 6920 nM | GI50 [6]: 701 nM | TGI [6]: 4890 nM | GI50 [7]: 395 nM | TGI [7]: > 100000 nM | GI50 [8]: 523 nM | TGI [8]: 1950 nM | GI50 [9]: 855 nM | TGI [9]: 4900 nM | GI50 [10]: 1020 nM | TGI [10]: 5300 nM | GI50 [11]: 703 nM | TGI [11]: 3480 nM | GI50 [12]: 395 nM | TGI [12]: > 100000 nM | GI50 [13]: 1740 nM | TGI [13]: > 100000 nM | GI50 [14]: 709 nM | TGI [14]: > 28900 nM | GI50 [15]: 511 nM | TGI [15]: 4650 nM | GI50 [16]: 853 nM | TGI [16]: 4820 nM | GI50 [17]: 1670 nM | TGI [17]: 5970 nM | GI50 [18]: 1790 nM | TGI [18]: 5930 nM | GI50 [19]: 1020 nM | TGI [19]: 5110 nM | GI50 [20]: 433 nM | TGI [20]: > 100000 nM | GI50 [21]: 2190 nM | TGI [21]: 5140 nM | GI50 [22]: 657 nM | TGI [22]: 3480 nM | GI50 [23]: 1090 nM | TGI [23]: 2480 nM | GI50 [24]: 1000 nM | TGI [24]: 2510 nM | GI50 [25]: 1300 nM | TGI [25]: 3240 nM | GI50 [26]: 620 nM | TGI [26]: 7060 nM | GI50 [27]: 917 nM | TGI [27]: 2390 nM | GI50 [28]: 495 nM | TGI [28]: > 39700 nM | GI50 [29]: 1070 nM | TGI [29]: 5970 nM | GI50 [30]: 1510 nM | TGI [30]: 4430 nM | GI50 [31]: 2430 nM | TGI [31]: 6630 nM | GI50 [32]: 431 nM | TGI [32]: 3420 nM | GI50 [33]: 3080 nM | TGI [33]: > 100000 nM | GI50 [34]: 460 nM | TGI [34]: 2590 nM | GI50 [35]: 1720 nM | TGI [35]: 6610 nM | GI50 [36]: 498 nM | TGI [36]: > 100000 nM | GI50 [37]: 665 nM | TGI [37]: > 100000 nM | GI50 [38]: 2400 nM | TGI [38]: 6010 nM | GI50 [39]: 1240 nM | TGI [39]: 2910 nM | GI50 [40]: 492 nM | TGI [40]: 4230 nM | GI50 [41]: 1720 nM | TGI [41]: 7100 nM | GI50 [42]: 683 nM | TGI [42]: 2530 nM | GI50 [43]: 1280 nM | TGI [43]: 2670 nM | GI50 [44]: 809 nM | TGI [44]: 2300 nM | GI50 [45]: 1020 nM | TGI [45]: 2340 nM | GI50 [46]: 773 nM | TGI [46]: 3920 nM | GI50 [47]: 1290 nM | TGI [47]: 6130 nM | GI50 [48]: 947 nM | TGI [48]: > 27400 nM | GI50 [49]: 1210 nM | TGI [49]: 2630 nM | GI50 [50]: 342 nM | TGI [50]: > 100000 nM | GI50 [51]: 786 nM | TGI [51]: > 100000 nM | GI50 [52]: 346 nM | TGI [52]: 2730 nM | GI50 [53]: 1100 nM | TGI [53]: 5260 nM | GI50 [54]: 514 nM | TGI [54]: > 100000 nM | GI50 [55]: 2140 nM | TGI [55]: 5390 nM | GI50 [56]: 788 nM | TGI [56]: 2310 nM | GI50 [57]: 1680 nM | TGI [57]: 4910 nM
